Data on three compounds can be found in publication PMC10002984, “Dual PTP1B/TC-PTP Inhibitors: Biological Evaluation of 3-(Hydroxymethyl)cinnoline-4(1H)-Ones” (International Journal of Molecular Sciences, 2023).

Marks after values point to notes of the source that are not given here.

In assay [1] the test system is male rats with HFD-induced obesity. Nature of the assay: Blood glucose, insulin and leptin levels and insulin resistance index in obese rats. Type of assay: in vivo, male Wistar rats. Particulars: for Glucose, After / Insulin, After / Leptin, After / Glucose, Before / Insulin, Before / Leptin, Before: blood, M ± SEM, n = 5; for Glucose, After / Insulin, After / Leptin, After / IR (insulin resistance index), After: after five-day i.p. treatment, 7 mg/kg (1, 2), 8 mg/kg (3), 10 mg/kg (4); for Glucose, Before / Insulin, Before / Leptin, Before / IR (insulin resistance index), Before: before treatment (baseline); for IR (insulin resistance index), After / IR (insulin resistance index), Before: product of blood glucose and insulin concentrations. The method, then:
Further, six groups were formed: control (Con, n = 10), obesity (Ob, n = 10), obese rats with five-day treatment with compounds 1 (Ob + 1, n = 5), 2 (Ob + 2, n = 5), 3 (Ob + 3, n = 10), and 4 (Ob + 4, n = 10). All compounds were administered in DMSO (300 µL) at a daily dose of 7 mg/kg (1 and 2), 8 mg/kg (3), and 10 mg/kg (4) (i.p.), based on the results of the preliminary experiments. The used doses of compounds 1–4, in terms of the number of moles of each compound per kg of animal body weight, were equivalent. Control and obese rats received DMSO in the same volumes (300 µL), instead of the tested compounds. During the five days of the experiment, all animals were transferred to standard food and had free access to food and drinking water. […] The test was carried out on the morning of the next day after the last (fifth) injection of the compounds or DMSO, after a 10 h fast. The rest of the animals (n = 5 in each group) were anesthetized and decapitated on the last day of the experiment. The blood and liver samples were taken to measure blood glucose and hormone levels and gene expression in the liver.
The glucose levels in the blood obtained from the tail vein were measured using a glucometer (Life Scan Johnson & Johnson, Denmark) and the test strips “One Touch Ultra” (USA). The levels of insulin and leptin in rat serum were estimated with the “Rat Insulin ELISA” (Mercodia AB, Uppsala, Sweden) and “ELISA for Leptin, Rat” (Cloud-Clone Corporation, Houston, TX, USA) kits. The GTT was carried out using a single injection of glucose (2 g/kg, i.p.) after 10 h of fasting, as described earlier. The blood glucose levels were measured before (0 min) and 15, 30, 60, and 120 min after the glucose load.

Assay [2] addresses T1, recombinant human PTP1B protein (Homo sapiens, UniProt P18031).
T1 construct: purchased Abcam ab51277
T1 sequence (P18031 1-321 limits assumed): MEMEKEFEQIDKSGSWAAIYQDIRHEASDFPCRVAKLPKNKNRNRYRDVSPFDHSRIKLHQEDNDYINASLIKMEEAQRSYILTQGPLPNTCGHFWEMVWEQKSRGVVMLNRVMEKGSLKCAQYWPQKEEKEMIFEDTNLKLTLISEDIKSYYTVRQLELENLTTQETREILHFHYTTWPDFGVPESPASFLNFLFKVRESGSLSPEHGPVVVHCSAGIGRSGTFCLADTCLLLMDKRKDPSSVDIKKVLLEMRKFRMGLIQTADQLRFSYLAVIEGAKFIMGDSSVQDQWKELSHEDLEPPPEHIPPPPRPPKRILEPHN
Put plainly: Phosphatase activity assay with DiFMUP, PTP1B inhibition. Type of assay: biochemical. The note with it: for IC50: DiFMUP 25 µM, 80 ng/mL PTP1B, compounds 0.1–80 μM, M ± SEM (n = 24), read-out: IC50 for the inhibitory effect on PTP1B activity. The method, then:
The measurement of the activity of the phosphatases PTP1B and TC-PTP and their inhibition was carried out using 6,8-difluoro-4methylumbelliferyl phosphate (DiFMUP), as previously described. The stock solution of recombinant human PTP1B protein (#ab51277, Abcam, Cambridge, UK), at a concentration of 1 µg/µL, was prepared in 25 mM Tris–HCl (pH 7.5), 20% glycerol, 2 mM β-mercaptoethanol, 1 mm EDTA, and 1 mM DTT, and stored at −20 °C. Active human recombinant TC-PTP protein was purchased from Sigma-Aldrich (#SRP0218, Saint Louis, MO, USA) as the aqueous buffer solution at a concentration of 2.9 mg/mL, and aliquots were stored at −80 °C. The fluorogenic substrate DiFMUP (#D6567, Molecular Probes, Thermo Fisher Scientific, Waltham, MA, USA) was dissolved at a concentration of 10 mM in N,N-dimethylformamide and stored in aliquots at −20 °C. The 6,8-difluoro-7-hydroxy-4-methylcoumarin (DiFMU, #D6566, Molecular Probes, Thermo Fisher Scientific, Waltham, MA, USA) was used as a reference fluorescent standard. For the IC50 determination, the assay was carried out in black flat bottom 96-well plates using a reaction volume of 100 µL. The phosphatases (PTP1B or TC-PTP) were preincubated with the tested compounds (0.1–80 µM) in 50 mM HEPES (pH 6.9), 100 mM NaCl, 1 mM EDTA, 2 mM DTT, 0.1 mg/mL BSA for 5 min at 37 °C. The following concentrations of the compounds were studied: 0.1, 0.2, 0.5, 1, 2, 5, 10, 20, 40, and 80 μM. The reactions were initiated by the addition of the fluorogenic substrate DiFMUP and diluted in the assay buffer. Progress curves for hydrolysis reaction were obtained with 25 µM of DiFMUP for 80 ng/mL PTP1B, and 35 µM of DiFMUP for 80 ng/mL TC-PTP. Fluorescence excitation of hydrolyzed DiFMUP and the fluorescent standard DiFMU was monitored at 355 nm and emission was detected at 460 nm for 6–10 min at 30 s intervals in a Fluoroskan Ascent FL microplate reader (Thermo Electron Corporation, Vantaa, Finland). Initial velocities of the reactions were used to calculate the IC50 values using GraphPad Prism.
The data on food intake, body weight, and biochemical parameters in rats, as well as the PCR data, were analyzed using the IBM SPSS Statistics 22 software (“IBM”, Armonk, NY, USA), and the results are presented as mean ± standard error of the mean (M ± SEM). All differences are considered significant at p < 0.05. The calculation of the IC50 values of the studied inhibitors for the initial velocities of enzymatic reactions (PTP1B, TC-PTP) was carried out using the nonlinear regression analysis with GraphPad Prism 8 (“GraphPad Software, Inc.”, Boston, MA, USA). The statistical analysis was carried out using the Wilcoxon test for pairwise comparison and Dunn’s test for multiple comparisons.

In general, IC50 refers to the concentration at which inhibition is half-maximal. Turning to `O=c1c(CO)n[nH]c2ccc(Br)cc12` [Compound 4, 6-Bromo-3-(hydroxymethyl)cinnolin-4(1H)-one], in assay [1], the “Glucose, After” value is given as 5.24 ± 0.25 ^a mM; the “Insulin, After” value is reported as 1.06 ± 0.13 ^a,c ng/mL; the “Leptin, After” value is 1.90 ± 0.16 ^a,b,c ng/mL; the “Glucose, Before” value was 5.72 ± 0.30 ^a mM. Further, in assay [1], the “Insulin, Before” value is on record as 1.65 ± 0.18 ^a ng/mL; the “Leptin, Before” value is 3.17 ± 0.25 ^a ng/mL; the “IR (insulin resistance index), After” value is recorded as 5.61 ± 0.89 ^a arb.Units; the “IR (insulin resistance index), Before” value was 9.63 ± 1.57 ^a arb.Units. Besides, the IC50 in assay [2] was determined as 11 ± 1.34 µM.

In the case of `O=c1c(CO)n[nH]c2ccc(Cl)cc12` [Compound 3, 6-Chloro-3-(hydroxymethyl)cinnolin-4(1H)-one], in assay [1], the “Glucose, After” value is 5.36 ± 0.31 ^a mM; the “Insulin, After” value is on record as 0.93 ± 0.13 ^b,c ng/mL; the “Leptin, After” value is on record as 1.52 ± 0.21 ^b,c ng/mL; the “Glucose, Before” value is 5.80 ± 0.31 ^a mM. In assay [1], the “Insulin, Before” value is 1.51 ± 0.18 ^a ng/mL; the “Leptin, Before” value is recorded as 2.93 ± 0.42 ^a ng/mL; the “IR (insulin resistance index), After” value is recorded as 5.12 ± 0.97 ^b arb.Units; the “IR (insulin resistance index), Before” value was 8.96 ± 1.46 ^a arb.Units. Also, the “insulin resistance index compared to the Ob group” value in assay [1] (five-day treatment, 3 8 mg/kg/day) was “significantly reduced”. For the same compound, the IC50 in assay [2] is 5.11 ± 0.57 µM.

For `O=c1c(CO)n[nH]c2ccccc12` [Compound 1], in assay [1], the “Glucose, After” value is on record as 5.74 ± 0.07 ^a mM; the “Insulin, After” value is listed as 1.11 ± 0.14 ^a ng/mL; the “Leptin, After” value is recorded as 1.72 ± 0.24 ^b,c ng/mL; the “Glucose, Before” value is given as 5.94 ± 0.22 ^a mM. In assay [1], the “Insulin, Before” value is 1.57 ± 0.16 ^a ng/mL; the “Leptin, Before” value is 3.06 ± 0.40 ^a ng/mL; the “IR (insulin resistance index), After” value is recorded as 6.32 ± 0.77 ^a arb.Units; the “IR (insulin resistance index), Before” value is on record as 9.46 ± 1.31 ^a arb.Units. In addition, the IC50 in assay [2] came to 3.78 ± 0.34 µM. The “selectivity for PTP1B compared to that for TC-PTP” value in assay [2] (from IC50 values of Table 1) was 5–7 fold.
